Results: PubChem BioAssay AID298 (DTP/NCI, 2004)
Several values for one entry are separate records, joined by “and”; a condition that tells them apart may be missing. Identical values can stand only once. Results filed as inconclusive are left out.

Tested on: MX-1 breast xenograft, intrarenal, nude mice, tumor weight
Assay: NCI In Vivo Anticancer Drug Screen. Data for tumor model Human Mammary Carcinoma MX-1 Xenograft (intrarenal inoculation) in NU/NU BALB/C (nude) mice
Settings: endpoint: mean tumor weight change, higher = larger tumour
In short: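 Mice w/ transplanted tumors, drug vs vehicle; endpoint survival or tumor size; value = T/C.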

[1] = dose: 100.0 mg/kg/injection, schedule: Q04DX003 (ip), vehicle: Klucel (hydroxypropylcellulose) (HPC)
[2] = dose: 200.0 mg/kg/injection, schedule: Q04DX003 (ip), vehicle: Klucel (hydroxypropylcellulose) (HPC)
[3] = dose: 400.0 mg/kg/injection, schedule: Q04DX003 (ip), vehicle: Klucel (hydroxypropylcellulose) (HPC)
[4] = dose: 150.0 mg/kg/injection, schedule: Q04DX003 (ip), vehicle: saline with Tween-80
[5] = dose: 300.0 mg/kg/injection, schedule: Q04DX003 (ip), vehicle: saline with Tween-80
[6] = dose: 600.0 mg/kg/injection, schedule: Q04DX003 (ip), vehicle: saline with Tween-80
[7] = dose: 1200.0 mg/kg/injection, schedule: Q04DX003 (ip), vehicle: saline with Tween-80
[8] = dose: 6.25 mg/kg/injection, schedule: Q01DX010 (sc), vehicle: saline

SMILES: CC(=O)Nc1ccc(Nc2ccc(C(=C3C=CC(=[N+](C)CCC#N)C=C3)c3ccc(N(C)CCC#N)cc3)cc2)cc1
- T/C (dose: 12.5 mg/kg/injection, schedule: Q04DX003 (ip), vehicle: saline): 45 % of control
- T/C (dose: 25.0 mg/kg/injection, schedule: Q04DX003 (ip), vehicle: saline): 80 % of control
- T/C (dose: 50.0 mg/kg/injection, schedule: Q04DX003 (ip), vehicle: saline): 63 % of control
- T/C (dose: 100.0 mg/kg/injection, schedule: Q04DX003 (ip), vehicle: saline): 97 % of control
- T/C (dose: 100.0 mg/kg/injection, schedule: Q04DX003 (ip), vehicle: suspension in saline): 84 % of control
- T/C (dose: 200.0 mg/kg/injection, schedule: Q04DX003 (ip), vehicle: suspension in saline): 45 % of control

SMILES: O=C1CSC(c2cccs2)N1c1nncs1 (centres undefined)
- T/C [1]: 92 % of control
- T/C [2]: 102 % of control
- T/C [3]: 57 % of control
- T/C (dose: 800.0 mg/kg/injection, schedule: Q04DX003 (ip), vehicle: Klucel (hydroxypropylcellulose) (HPC)): 49 % of control

SMILES: CNC(=S)SC1=NS(=O)(=O)c2ccccc2N1
- T/C [2]: 179 % of control
- T/C [3]: 165 % of control

SMILES: O=C1N[C@H]2[C@H](O)[C@H](O)[C@@H](O)[C@H](O)[C@@H]2c2cc3c(c(O)c21)OCO3
- T/C (dose: 12.5 mg/kg/injection, schedule: Q04DX003 (ip), vehicle: saline + alcohol): 72 % of control

SMILES: CC[PH+](CC)CC[S-].CC[PH+](CC)CC[S-].[Au+].[Au+]
- T/C (dose: 40.0 mg/kg/injection, schedule: Q04DX003 (sc), vehicle: Klucel (hydroxypropylcellulose) (HPC)): 87 % of control
- T/C (dose: 80.0 mg/kg/injection, schedule: Q04DX003 (sc), vehicle: Klucel (hydroxypropylcellulose) (HPC)): 69 % of control
- T/C (dose: 160.0 mg/kg/injection, schedule: Q04DX003 (sc), vehicle: Klucel (hydroxypropylcellulose) (HPC)): 55 % of control
- T/C (dose: 320.0 mg/kg/injection, schedule: Q04DX003 (sc), vehicle: Klucel (hydroxypropylcellulose) (HPC)): 80 % of control

SMILES: COc1cccc2c1C(=O)c1c(O)c3c(c(O)c1C2=O)CC(O)(/C(C)=N/NC(=O)CCCCC(=O)N/N=C(\C)C1(O)Cc2c(O)c4c(c(O)c2C(OC2CC(N)C(O)C(C)O2)C1)C(=O)c1c(OC)cccc1C4=O)CC3OC1CC(N)C(O)C(C)O1 (centres undefined)
- T/C (dose: 12.5 mg/kg/injection, schedule: Q04DX003 (sc), vehicle: water): 41 % of control
- T/C (dose: 25.0 mg/kg/injection, schedule: Q04DX003 (sc), vehicle: water): 5 % of control
- T/C (dose: 50.0 mg/kg/injection, schedule: Q04DX003 (sc), vehicle: water): -56 % of control

SMILES: CCN(CC)CC(C)(C)C(=O)/C=C/c1ccc(/C=C/C(=O)C(C)(C)CN(CC)CC)cc1
- T/C (dose: 60.0 mg/kg/injection, schedule: Q04DX003 (ip), vehicle: saline): 67 % of control

SMILES: C=CC(C)NC(=S)NNC(=S)NC (centres undefined)
- T/C (dose: 300.0 mg/kg/injection, schedule: Q04DX003 (sc), vehicle: saline + alcohol): 85 % of control
- T/C (dose: 600.0 mg/kg/injection, schedule: Q04DX003 (sc), vehicle: saline + alcohol): 58 % of control
- T/C (dose: 1200.0 mg/kg/injection, schedule: Q04DX003 (sc), vehicle: saline + alcohol): 99 % of control

SMILES: N#CCS(=O)(=O)c1cccc[n+]1[O-]
- T/C [4]: 77 % of control
- T/C [5]: 67 % of control

SMILES: CC(C)(C)c1ccc(C(=O)N2CCOC23CCCCC3)cc1
- T/C [4]: 69 % of control and 87 % of control
- T/C [5]: 96 % of control and 112 % of control
- T/C [6]: 80 % of control and 88 % of control
- T/C [7]: 95 % of control and 106 % of control

SMILES: Cc1cc2c(C(C)C)c(O)c(O)c(C=NCCO)c2c(O)c1-c1c(C)cc2c(C(C)C)c(O)c(O)c(C=NCCO)c2c1O
- T/C (dose: 75.0 mg/kg/injection, schedule: Q04DX003 (ip), vehicle: saline with Tween-80): 111 % of control
- T/C [4]: 86 % of control
- T/C [5]: 58 % of control
- T/C [6]: 97 % of control
- T/C [7]: 69 % of control

SMILES: CCN(CC)CC(=O)O[C@]1(CC)C(=O)OCc2c1cc1n(c2=O)Cc2cc3ccccc3nc2-1
- T/C (dose: 2.0 mg/kg/injection, schedule: Q04DX003 (ip), vehicle: other): 35 % of control
- T/C (dose: 2.0 mg/kg/injection, schedule: Q04DX003 (ip), vehicle: water): 29 % of control
- T/C (dose: 4.0 mg/kg/injection, schedule: Q04DX003 (ip), vehicle: other): 19 % of control
- T/C (dose: 4.0 mg/kg/injection, schedule: Q04DX003 (ip), vehicle: water): 13 % of control
- T/C (dose: 8.0 mg/kg/injection, schedule: Q04DX003 (ip), vehicle: other): 1 % of control
- T/C (dose: 16.0 mg/kg/injection, schedule: Q04DX003 (ip), vehicle: other): -56 % of control
- T/C (dose: 16.0 mg/kg/injection, schedule: Q04DX003 (ip), vehicle: water): -100 % of control

SMILES: CC(C)CC(=O)NC(C(=O)NC(C(=O)NC(CC(C)C)C(O)CC(=O)NC(C)C(=O)NC(CC(C)C)C(O)CC(=O)O)C(C)C)C(C)C (centres undefined)
- T/C (dose: 150.0 mg/kg/injection, schedule: Q04DX002 (ip), vehicle: Klucel (hydroxypropylcellulose) (HPC)): 47 % of control
- T/C (dose: 150.0 mg/kg/injection, schedule: Q04DX003 (ip), vehicle: Klucel (hydroxypropylcellulose) (HPC)): 85 % of control
- T/C (dose: 300.0 mg/kg/injection, schedule: Q04DX002 (ip), vehicle: Klucel (hydroxypropylcellulose) (HPC)): 57 % of control
- T/C (dose: 600.0 mg/kg/injection, schedule: Q04DX002 (ip), vehicle: Klucel (hydroxypropylcellulose) (HPC)): 21 % of control

SMILES: O=C1c2ccccc2C(=O)c2c1cn1c2Cc2ccccc2C1
- T/C (dose: 50.0 mg/kg/injection, schedule: Q04DX003 (ip), vehicle: Klucel (hydroxypropylcellulose) (HPC)): 72 % of control
- T/C [1]: 37 % of control
- T/C [2]: 26 % of control
- T/C [3]: 35 % of control

SMILES: CCOC(=O)NC1=C(N2CC2)C(=O)C(NC(=O)OCC)=C(N2CC2)C1=O
- T/C (dose: 1.56 mg/kg/injection, schedule: Q01DX010 (sc), vehicle: saline): 45 % of control
- T/C (dose: 3.13 mg/kg/injection, schedule: Q01DX010 (sc), vehicle: saline): 13 % of control
- T/C [8]: -75 % of control

SMILES: c1ccc2c(NCCCCCCCCNc3c4ccccc4nc4ccccc34)c3ccccc3nc2c1
- T/C (dose: 20.0 mg/kg/injection, schedule: Q01DX010 (sc), vehicle: Klucel (hydroxypropylcellulose) (HPC)): 106 % of control
- T/C (dose: 40.0 mg/kg/injection, schedule: Q01DX010 (sc), vehicle: Klucel (hydroxypropylcellulose) (HPC)): 107 % of control
- T/C (dose: 80.0 mg/kg/injection, schedule: Q01DX010 (sc), vehicle: Klucel (hydroxypropylcellulose) (HPC)): 100 % of control
- T/C (dose: 160.0 mg/kg/injection, schedule: Q01DX010 (sc), vehicle: Klucel (hydroxypropylcellulose) (HPC)): 99 % of control

SMILES: COC(=O)[C@@]12OC[C@]34[C@H]([C@@H](O)[C@@H]1O)[C@@]1(C)CC(=O)C(OC(=O)CC(=O)OC5=C(C)[C@@H]6C[C@H]7OC(=O)[C@H](OC(=O)/C=C(\C)C(C)C)[C@H]8[C@]9(C(=O)OC)OC[C@]78[C@H]([C@@H](O)[C@@H]9O)[C@@]6(C)CC5=O)=C(C)[C@@H]1C[C@H]3OC(=O)[C@H](OC(=O)/C=C(\C)C(C)C)[C@@H]24
- T/C (dose: 3.12 mg/kg/injection, schedule: Q04DX003 (ip), vehicle: saline + Tween-80 + alcohol): 86 % of control
- T/C (dose: 6.25 mg/kg/injection, schedule: Q04DX003 (ip), vehicle: saline + Tween-80 + alcohol): 63 % of control

SMILES: CSc1cc(=O)n2c3ccccc3c3ccnc1c32
- T/C (dose: 80.0 mg/kg/injection, schedule: Q04DX003 (sc), vehicle: saline with Tween-80): 89 % of control
- T/C (dose: 160.0 mg/kg/injection, schedule: Q04DX003 (sc), vehicle: saline with Tween-80): 26 % of control
- T/C (dose: 320.0 mg/kg/injection, schedule: Q04DX003 (sc), vehicle: saline with Tween-80): 40 % of control

SMILES: CC1(C)N=C(N)N=C(N)N1c1ccc(F)c(C(F)(F)F)c1
- T/C [8]: 97 % of control
- T/C (dose: 12.5 mg/kg/injection, schedule: Q01DX010 (sc), vehicle: saline): 85 % of control
- T/C (dose: 25.0 mg/kg/injection, schedule: Q01DX010 (sc), vehicle: saline): 64 % of control

SMILES: CC1(C)Nc2cc3c(cc2-n2cccc21)oc1ccccc13
- T/C (dose: 150.0 mg/kg/injection, schedule: Q04DX003 (ip), vehicle: DMSO): 113 % of control
- T/C (dose: 300.0 mg/kg/injection, schedule: Q04DX003 (ip), vehicle: DMSO): 90 % of control
- T/C (dose: 600.0 mg/kg/injection, schedule: Q04DX003 (ip), vehicle: DMSO): 83 % of control
- T/C (dose: 1200.0 mg/kg/injection, schedule: Q04DX003 (ip), vehicle: DMSO): 80 % of control
